This passage reports half-life, inhibition and Activity results from ChEMBL document CHEMBL6109147, “Discovery of Potent STING Inhibitors Bearing a Difluorobenzodioxol Structural Motif as Potent Anti-Inflammatory Agents” (J Med Chem, 2025).

Activity calls are given as the source filed them.

Data set [1] in a line: Metabolic stability in mouse liver microsomes assessed as half life. Type of data set: ADME, Microsome. (In general: Liver microsomes are vesicles of endoplasmic reticulum, rich in cytochrome P450 enzymes.)
The target of data set [2] is Stimulator of interferon genes protein (Homo sapiens) (UniProt Q86WV6). Nature of the data set: Inhibition of STING downstream signalling in human THP1-Dual cells assessed as inhibition of cGAMP induced IP-10 secretion at 0.3 to 3 uM pre-treated for 1 hr followed by stimulated with cGAMP measured after 24 hrs by ELISA. The format is cell-based. To be noted: dose 0.3-3 µM, time 25.0 hrs. In general terms: An ELISA detects its analyte on a solid surface through an enzyme-linked reagent.
Sequence of Stimulator of interferon genes protein (Homo sapiens) (Q86WV6 whole entry): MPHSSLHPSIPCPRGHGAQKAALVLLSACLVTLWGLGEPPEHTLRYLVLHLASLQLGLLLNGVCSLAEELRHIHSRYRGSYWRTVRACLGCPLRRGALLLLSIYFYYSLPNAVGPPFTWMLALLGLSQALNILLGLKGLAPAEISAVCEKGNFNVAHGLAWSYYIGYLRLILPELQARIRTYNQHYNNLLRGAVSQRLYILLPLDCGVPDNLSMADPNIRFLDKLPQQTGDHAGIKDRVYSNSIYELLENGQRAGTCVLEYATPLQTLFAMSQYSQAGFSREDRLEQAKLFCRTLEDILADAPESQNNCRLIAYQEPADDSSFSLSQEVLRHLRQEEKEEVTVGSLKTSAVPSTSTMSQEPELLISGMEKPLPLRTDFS

Data set [3] shares this target. Nature of the data set: Inhibition of STING downstream signalling in human THP1-Dual cells assessed as inhibition of cGAMP induced IP-10 mRNA expression at 0.3 to 3 uM pre-treated for 1 hr followed by stimulated with cGAMP measured after 4 hrs by real-time PCR analysis. Type of data set: cell-based. To be noted: dose 0.3-3 µM, time 5.0 hrs.
Data set [4] deals with Stimulator of interferon genes protein (Homo sapiens), Q86WV6 [UNDEFINED MUTATION]. Nature of the data set: Inhibition of human STING expressed in 293T-Dual-hSTING-H232 cells assessed as reduction in cGAMP-induced secreted luciferase reporter of interferon stimulated gene (ISG) measured after 24 hrs incubation. Type of data set: cell-based. (Reporter assays use an easily measured gene product as a stand-in for the process of interest.)
Sequence of Stimulator of interferon genes protein (Homo sapiens), Q86WV6 [UNDEFINED MUTATION] (Q86WV6 whole entry, looked up, change not shown): as the sequence (Q86WV6 whole entry) above

In data set [5] the test system is Mus musculus. Nature of the data set: Anti-inflammatory activity against MSA-2 induced C57BL/6 mouse inflammation model assessed as inhibition of MSA-2 induced Cxcl-10 mRNA expression in kidney at 10 mg/kg, ip pre-treated for 1 hr followed by stimulated with MSA-2 for 4 hrs by real-time PCR analysis. Type of data set: functional, organism-based. The conditions noted are these: time 5.0 hrs.

In data set [6] the test system is Mus musculus. The data set is described as follows: Anti-inflammatory activity against Cisplatin induced C57BL/6 mouse kidney inflammation model assessed as suppression of Cisplatin induced Cxcl-10 mRNA level in kidney at 5 mg/kg, ip treated for 3 days by real-time PCR analysis. Type of data set: functional, organism-based. The conditions noted are these: time 3.0 day.

Data set [7] relates to Mus musculus. Nature of the data set: Anti-inflammatory activity in TREX1 D18N mouse model assessed as reduction in Isg56 mRNA expression in heart at 10 mg/kg, ip measured after 2 weeks. Type of data set: functional, organism-based.

As usually defined, the half-life is the time needed for the level to fall by half in the phase considered. For the compound `N#CC/C=C/c1ccc2[nH]cc(NC(=O)Nc3ccc4c(c3)OC(F)(F)O4)c2c1`, in data set [1], the half-life amounted to 26.7 min. Moreover, the inhibition entry (in data set [2]; in data set [3]; in data set [4]; with Mus musculus [5]; in the data set with Mus musculus [6]) was “Active” each time. For the same compound, the outcome in the data set on Mus musculus [7] was Active.
